pIC50: −log10 of the molar value.
Assays:
[1] = Oral bioavailability in Sprague-Dawley rat at 1 mg/kg; type: ADME, organism-based; conditions: in vivo
[2] = Clearance in Sprague-Dawley rat at 1 mg/kg; type: ADME, organism-based; parameters: dose 1 mg/kg; conditions: in vivo
[3] = tested on: Human immunodeficiency virus 1; assay: Antiviral activity against HIV1 BaL in human PBL cells; type: functional, organism-based; conditions: Human immunodeficiency virus 1, BaL
[4] = tested on: Human immunodeficiency virus 1; assay: Antiviral activity against HIV1 BaL in human HOS cells; type: functional, organism-based; conditions: Human immunodeficiency virus 1, BaL
HOS = assay: Cytotoxicity against human HOS cells up to 1 uM; type: cell-based
PBL = assay: Cytotoxicity against human PBL cells up to 1 uM; type: cell-based
[5] = Apparent permeability across MDCK cells at pH 7.05; type: ADME, cell-based, Canis lupus familiaris; conditions: dog
[6] = Half life in Sprague-Dawley rat at 1 mg/kg; type: ADME, organism-based; parameters: dose 1 mg/kg; conditions: in vivo
Cytochrome P450 3A4 = Cytochrome P450 3A4 (Homo sapiens, UniProt P08684); assay: Inhibition of CYP3A4; type: ADME
Cytochrome P450 3A4, sequence (P08684 whole entry): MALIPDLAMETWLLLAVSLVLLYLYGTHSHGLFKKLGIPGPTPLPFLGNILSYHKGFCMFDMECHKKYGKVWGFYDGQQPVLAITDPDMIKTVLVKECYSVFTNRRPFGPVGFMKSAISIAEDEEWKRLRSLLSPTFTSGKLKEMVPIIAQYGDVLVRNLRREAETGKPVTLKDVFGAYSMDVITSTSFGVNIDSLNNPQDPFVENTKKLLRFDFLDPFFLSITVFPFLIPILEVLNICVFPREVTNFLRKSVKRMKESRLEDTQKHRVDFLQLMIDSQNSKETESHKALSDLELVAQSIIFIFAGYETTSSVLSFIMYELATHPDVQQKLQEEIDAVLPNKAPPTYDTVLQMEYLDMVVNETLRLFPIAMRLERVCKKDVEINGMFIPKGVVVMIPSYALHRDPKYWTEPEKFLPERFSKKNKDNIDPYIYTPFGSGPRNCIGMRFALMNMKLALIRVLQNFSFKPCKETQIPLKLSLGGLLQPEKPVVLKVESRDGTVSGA

Row | Compound | bioavailability [1] | clearance [2] | pIC50 [3] | pIC50 [4] | Activity (HOS) | Activity (PBL) | Papp [5] | half-life [6] | inhibition (INH) (Cytochrome P450 3A4)
1 | CC(C)(C)NS(=O)(=O)c1ccc(Cl)c(C(=O)N2CCC(CCN3CCC(N(C(=O)NCc4ccc(C#N)cc4)c4cccc(F)c4)CC3)(c3cccc(F)c3)CC2)c1Cl | 10% | 9 mL/min/kg | 9.10 | 8.52 | Non-toxic | Non-toxic | – | – | –
2 | N#Cc1ccc(CNC(=O)N(c2cccc(F)c2)C2CCN(CCC3(c4cccc(F)c4)CCN(C(=O)c4cc(S(=O)(=O)N5CC[C@H](O)C5)c(F)cc4Cl)CC3)CC2)cc1 | 8% | 24 mL/min/kg | 9.30 | 8.82 | Non-toxic | Non-toxic | – | – | –
3 | N#Cc1ccc(CNC(=O)N(c2cccc(F)c2)C2CCN(CCC3(c4cccc(F)c4)CCN(C(=O)c4cc(S(=O)(=O)N5CCCC5)c(F)cc4Cl)CC3)CC2)cc1 | 9% | 9.5 mL/min/kg | 9.22 | 8.82 | Non-toxic | Non-toxic | – | – | –
4 | N#Cc1ccc(CNC(=O)N(c2cccc(F)c2)C2CCN(CCC3(c4cccc(F)c4)CCN(C(=O)c4cc(S(=O)(=O)N5CC[C@H](O)C5)c(F)cc4F)CC3)CC2)cc1 | 0% | 43 mL/min/kg | – | 8.89 | Non-toxic | Non-toxic | – | – | –
5 | N#Cc1ccc(CNC(=O)N(c2cccc(F)c2)C2CCN(CCC3(c4cccc(F)c4)CCN(C(=O)c4cc(S(=O)(=O)N5CCCC5)c(F)cc4F)CC3)CC2)cc1 | 10% | 29 mL/min/kg | 9.22 | 9.05 | Non-toxic | Non-toxic | – | – | –
6 | N#Cc1ccc(CNC(=O)N(c2cccc(F)c2)C2CCN(CCC3(c4cccc(F)c4)CCN(C(=O)c4cc(S(N)(=O)=O)c(F)cc4F)CC3)CC2)cc1 | – | 31 mL/min/kg | 8.28 | 8.40 | Non-toxic | Non-toxic | < 0.3 ×10⁻⁶ cm/s | – | –
7 | N#Cc1ccc(CNC(=O)N(c2cccc(F)c2)C2CCN(CCC3(c4cccc(F)c4)CCN(C(=O)c4cc(S(N)(=O)=O)c(F)cc4Cl)CC3)CC2)cc1 | – | 9.7 mL/min/kg | 9.05 | 8.17 | Non-toxic | Non-toxic | < 0.3 ×10⁻⁶ cm/s | – | –
8 | N#Cc1ccc(CNC(=O)N(c2cccc(F)c2)C2CCN(CCC3(c4cccc(F)c4)CCN(C(=O)c4c(Cl)ccc(S(N)(=O)=O)c4Cl)CC3)CC2)cc1 | – | 16 mL/min/kg | 8.55 | 8.24 | Non-toxic | Non-toxic | < 0.3 ×10⁻⁶ cm/s | – | –
9 | N#Cc1ccc(CNC(=O)N(c2cccc(F)c2)C2CCN(CCC3(c4cccc(F)c4)CCN(C(=O)c4c(F)ccc(S(N)(=O)=O)c4F)CC3)CC2)cc1 | – | 25 mL/min/kg | 8.70 | 8.18 | Non-toxic | Non-toxic | – | – | –
10 | N#Cc1ccc(CNC(=O)N(c2cccc(F)c2)C2CCN(CCC3(c4cccc(F)c4)CCN(C(=O)c4c(Cl)cncc4Cl)CC3)CC2)cc1 | 50% | 24 mL/min/kg | 8.32 | 8.57 | Non-toxic | Non-toxic | – | 4.9 h | Active
11 | N#Cc1ccc(CNC(=O)N(c2cccc(F)c2)C2CCN(CCC3(c4cccc(F)c4)CCN(C(=O)c4ccnc(Cl)c4)CC3)CC2)cc1 | 64% | 14.6 mL/min/kg | 7.89 | 7.72 | Non-toxic | Non-toxic | – | 5.8 h | Active
12 | N#Cc1ccc(CNC(=O)N(c2cccc(F)c2)C2CCN(CCC3(c4cccc(F)c4)CCN(C(=O)c4cccnc4F)CC3)CC2)cc1 | 60% | 22.5 mL/min/kg | 8.21 | 8.19 | Non-toxic | Non-toxic | – | 3.4 h | Active
13 | Cn1cc(Cl)c(C(=O)N2CCC(CCN3CCC(N(C(=O)NCc4ccc(C#N)cc4)c4cccc(F)c4)CC3)(c3cccc(F)c3)CC2)n1 | 11% | 25 mL/min/kg | 7.66 | 7.77 | Non-toxic | Non-toxic | – | 2.6 h | Active
14 | N#Cc1ccc(CNC(=O)N(c2cccc(F)c2)C2CCN(CCC3(c4cccc(F)c4)CCN(C(=O)c4cn[nH]c4C(F)(F)F)CC3)CC2)cc1 | 3% | 13 mL/min/kg | – | 8.09 | Non-toxic | Non-toxic | – | 7.2 h | Active
15 | N#Cc1ccc(CNC(=O)N(c2cccc(F)c2)C2CCN(CCC3(c4cccc(F)c4)CCN(C(=O)c4nsnc4O)CC3)CC2)cc1 | 0% | 124 mL/min/kg | 7.39 | 8.96 | Non-toxic | Non-toxic | – | – | Active
16 | CC(C)(C)C(=O)N1CCC(CCN2CCC(N(C(=O)NCc3ccc(C#N)cc3)c3cccc(F)c3)CC2)(c2cccc(F)c2)CC1 | 11% | 10 mL/min/kg | 8.28 | 7.96 | Non-toxic | Non-toxic | – | 2.4 h | –
17 | CC(C)(CO)C(=O)N1CCC(CCN2CCC(N(C(=O)NCc3ccc(C#N)cc3)c3cccc(F)c3)CC2)(c2cccc(F)c2)CC1 | 63% | 22 mL/min/kg | 7.70 | 7.72 | Non-toxic | Non-toxic | – | 2.6 h | –
18 | CC(CO)(CO)C(=O)N1CCC(CCN2CCC(N(C(=O)NCc3ccc(C#N)cc3)c3cccc(F)c3)CC2)(c2cccc(F)c2)CC1 | 7% | 26 mL/min/kg | – | 7.66 | Non-toxic | Non-toxic | – | 4.4 h | –
19 | N#Cc1ccc(CNC(=O)N(c2cccc(F)c2)C2CCN(CCC3(c4cccc(F)c4)CCN(C(=O)C4CCOCC4)CC3)CC2)cc1 | 11% | 25 mL/min/kg | 7.66 | 7.77 | Non-toxic | Non-toxic | – | 2.6 h | –
20 | CC(C)(C#N)C(=O)N1CCC(CCN2CCC(N(C(=O)NCc3ccc(C#N)cc3)c3cccc(F)c3)CC2)(c2cccc(F)c2)CC1 | 28% | 12 mL/min/kg | 7.31 | 8.19 | Non-toxic | Non-toxic | – | 4.3 h | –

From ChEMBL document CHEMBL1287766, “Discovery of N-benzyl-N'-(4-pipyridinyl)urea CCR5 antagonists as anti-HIV-1 agents (II): modification of the acyl portion” (Bioorg Med Chem Lett, 2010)
